According to ChEMBL document CHEMBL5291721, “A preclinical secondary pharmacology resource illuminates target-adverse drug reaction associations of marketed drugs” (Nat Commun, 2023):

What was measured:
[1] = target: Vasopressin V2 receptor (Homo sapiens, UniProt P30518)
[2] = target: Neuronal acetylcholine receptor subunit alpha-4 (Homo sapiens, UniProt P43681)
[3] = target: Melanocortin receptor 3 (Homo sapiens, UniProt P41968)
[4] = target: T1, Muscarinic acetylcholine receptor M2 (Homo sapiens, UniProt P08172); type: functional, cell-based
T1 sequence (P08172 whole entry): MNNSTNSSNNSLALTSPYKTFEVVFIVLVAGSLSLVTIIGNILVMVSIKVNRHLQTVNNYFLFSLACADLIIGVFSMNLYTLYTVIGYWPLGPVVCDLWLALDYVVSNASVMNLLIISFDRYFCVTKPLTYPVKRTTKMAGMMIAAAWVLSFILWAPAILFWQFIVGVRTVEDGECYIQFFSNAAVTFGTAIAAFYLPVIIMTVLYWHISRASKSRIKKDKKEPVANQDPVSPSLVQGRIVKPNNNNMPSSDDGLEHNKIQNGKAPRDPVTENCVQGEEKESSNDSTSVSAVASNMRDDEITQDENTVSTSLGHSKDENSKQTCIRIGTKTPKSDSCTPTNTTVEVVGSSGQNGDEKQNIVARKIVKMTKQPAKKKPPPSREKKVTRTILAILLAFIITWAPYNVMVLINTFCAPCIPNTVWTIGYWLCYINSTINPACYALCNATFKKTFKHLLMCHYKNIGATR

[5] = target: Histamine H2 receptor (Homo sapiens, UniProt P25021); type: functional, cell-based
[6] = target: Glutamate receptor ionotropic, NMDA 1 (Rattus norvegicus, UniProt P35439)
[7] = target: Beta-1 adrenergic receptor (Homo sapiens, UniProt P08588); type: functional
[8] = target: T2, Alpha-1A adrenergic receptor (Homo sapiens, UniProt P35348); type: functional, cell-based
T2 sequence (P35348 whole entry): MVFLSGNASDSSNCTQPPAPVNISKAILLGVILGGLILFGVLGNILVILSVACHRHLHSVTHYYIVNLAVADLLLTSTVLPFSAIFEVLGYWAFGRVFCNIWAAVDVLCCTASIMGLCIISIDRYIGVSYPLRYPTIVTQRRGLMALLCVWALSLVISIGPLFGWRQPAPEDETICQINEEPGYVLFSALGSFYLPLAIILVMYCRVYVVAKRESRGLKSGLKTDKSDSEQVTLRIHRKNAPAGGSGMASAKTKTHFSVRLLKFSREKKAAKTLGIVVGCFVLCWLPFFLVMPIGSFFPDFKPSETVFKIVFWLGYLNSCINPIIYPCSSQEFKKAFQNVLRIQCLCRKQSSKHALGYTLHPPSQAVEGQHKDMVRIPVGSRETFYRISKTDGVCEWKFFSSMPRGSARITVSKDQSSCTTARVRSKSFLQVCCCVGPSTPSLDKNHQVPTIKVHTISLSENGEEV

[9] = target: T3, Type-1 angiotensin II receptor (Homo sapiens, UniProt P30556)
T3 sequence (P30556 whole entry): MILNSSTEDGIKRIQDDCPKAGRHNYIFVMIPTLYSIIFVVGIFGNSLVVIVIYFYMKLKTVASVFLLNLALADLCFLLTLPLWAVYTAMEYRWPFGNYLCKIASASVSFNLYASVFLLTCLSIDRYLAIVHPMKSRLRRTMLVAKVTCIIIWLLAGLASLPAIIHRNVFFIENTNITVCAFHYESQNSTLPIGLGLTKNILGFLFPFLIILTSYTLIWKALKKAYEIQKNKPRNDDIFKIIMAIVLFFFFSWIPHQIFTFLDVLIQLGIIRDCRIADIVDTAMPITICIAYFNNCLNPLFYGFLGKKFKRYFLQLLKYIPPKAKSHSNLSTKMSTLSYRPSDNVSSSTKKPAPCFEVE

[10] = target: T4, Alpha-2A adrenergic receptor (Homo sapiens, UniProt P08913); type: functional, cell-based
T4 sequence (P08913 whole entry): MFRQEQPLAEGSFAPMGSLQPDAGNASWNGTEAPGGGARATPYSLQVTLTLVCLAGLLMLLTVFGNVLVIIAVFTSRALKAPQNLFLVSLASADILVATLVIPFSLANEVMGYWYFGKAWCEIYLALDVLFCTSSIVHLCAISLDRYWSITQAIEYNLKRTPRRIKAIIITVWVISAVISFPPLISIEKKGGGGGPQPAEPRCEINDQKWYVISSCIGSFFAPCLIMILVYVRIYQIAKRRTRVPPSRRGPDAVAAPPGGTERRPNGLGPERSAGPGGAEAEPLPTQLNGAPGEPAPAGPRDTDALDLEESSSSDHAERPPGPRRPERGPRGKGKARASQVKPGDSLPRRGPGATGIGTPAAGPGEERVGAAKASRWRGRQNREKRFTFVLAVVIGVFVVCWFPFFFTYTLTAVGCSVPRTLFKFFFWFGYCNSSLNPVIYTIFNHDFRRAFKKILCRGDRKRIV

[11] = target: T5, Adenosine receptor A1 (Homo sapiens, UniProt P30542)
T5 sequence (P30542 whole entry): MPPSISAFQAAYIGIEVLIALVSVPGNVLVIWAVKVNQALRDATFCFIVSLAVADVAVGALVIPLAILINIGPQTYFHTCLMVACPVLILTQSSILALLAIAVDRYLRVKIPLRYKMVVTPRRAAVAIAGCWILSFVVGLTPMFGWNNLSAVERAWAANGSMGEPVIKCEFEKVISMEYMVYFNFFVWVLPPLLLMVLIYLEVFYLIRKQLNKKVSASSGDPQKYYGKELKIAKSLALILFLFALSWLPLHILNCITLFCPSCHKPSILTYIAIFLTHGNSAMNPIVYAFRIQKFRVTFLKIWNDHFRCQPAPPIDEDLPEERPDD

[12] = target: Gamma-aminobutyric acid receptor subunit alpha-1 (Rattus norvegicus, UniProt P62813); type: functional
[13] = target: D(3) dopamine receptor (Homo sapiens, UniProt P35462)
[14] = target: T6, Adenosine receptor A3 (Homo sapiens, UniProt P0DMS8)
T6 sequence (P0DMS8 whole entry): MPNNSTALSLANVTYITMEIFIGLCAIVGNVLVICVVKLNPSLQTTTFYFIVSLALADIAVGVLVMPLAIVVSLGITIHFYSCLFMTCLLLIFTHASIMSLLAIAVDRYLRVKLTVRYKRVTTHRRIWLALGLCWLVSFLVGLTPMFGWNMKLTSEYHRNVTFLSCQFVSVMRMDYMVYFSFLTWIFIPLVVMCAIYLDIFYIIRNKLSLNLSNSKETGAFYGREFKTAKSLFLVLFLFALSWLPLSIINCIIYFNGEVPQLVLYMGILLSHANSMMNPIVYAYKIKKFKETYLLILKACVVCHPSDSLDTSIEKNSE
Note: assay procedure not described here.

Chain of Neuronal acetylcholine receptor subunit alpha-4 (P43681 whole entry): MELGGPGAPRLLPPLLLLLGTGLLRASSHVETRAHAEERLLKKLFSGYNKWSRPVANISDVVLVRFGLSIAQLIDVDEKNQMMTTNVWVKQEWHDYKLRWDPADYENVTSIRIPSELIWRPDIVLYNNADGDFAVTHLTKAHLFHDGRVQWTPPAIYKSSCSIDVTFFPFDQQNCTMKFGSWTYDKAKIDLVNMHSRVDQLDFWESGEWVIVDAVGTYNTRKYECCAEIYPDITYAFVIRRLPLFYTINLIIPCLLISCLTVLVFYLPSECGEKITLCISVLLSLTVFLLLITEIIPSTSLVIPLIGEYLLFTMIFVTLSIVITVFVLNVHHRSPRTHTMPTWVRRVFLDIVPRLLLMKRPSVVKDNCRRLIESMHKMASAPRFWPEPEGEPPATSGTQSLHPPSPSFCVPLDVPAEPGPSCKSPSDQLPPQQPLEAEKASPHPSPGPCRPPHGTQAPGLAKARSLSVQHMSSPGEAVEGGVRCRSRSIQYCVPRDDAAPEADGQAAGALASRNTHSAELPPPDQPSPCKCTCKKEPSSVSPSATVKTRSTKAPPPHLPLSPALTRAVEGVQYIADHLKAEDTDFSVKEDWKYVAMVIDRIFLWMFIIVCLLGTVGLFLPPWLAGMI
Chain of Melanocortin receptor 3 (P41968 whole entry): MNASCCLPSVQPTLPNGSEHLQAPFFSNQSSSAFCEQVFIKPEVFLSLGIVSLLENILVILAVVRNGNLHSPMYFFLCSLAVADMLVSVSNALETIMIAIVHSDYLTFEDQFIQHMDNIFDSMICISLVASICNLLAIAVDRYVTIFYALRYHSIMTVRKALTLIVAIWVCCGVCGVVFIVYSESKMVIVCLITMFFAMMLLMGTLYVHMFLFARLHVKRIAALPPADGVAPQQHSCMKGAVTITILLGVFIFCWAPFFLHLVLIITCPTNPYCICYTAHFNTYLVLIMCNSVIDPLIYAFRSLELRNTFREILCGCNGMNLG
Chain of D(3) dopamine receptor (P35462 whole entry): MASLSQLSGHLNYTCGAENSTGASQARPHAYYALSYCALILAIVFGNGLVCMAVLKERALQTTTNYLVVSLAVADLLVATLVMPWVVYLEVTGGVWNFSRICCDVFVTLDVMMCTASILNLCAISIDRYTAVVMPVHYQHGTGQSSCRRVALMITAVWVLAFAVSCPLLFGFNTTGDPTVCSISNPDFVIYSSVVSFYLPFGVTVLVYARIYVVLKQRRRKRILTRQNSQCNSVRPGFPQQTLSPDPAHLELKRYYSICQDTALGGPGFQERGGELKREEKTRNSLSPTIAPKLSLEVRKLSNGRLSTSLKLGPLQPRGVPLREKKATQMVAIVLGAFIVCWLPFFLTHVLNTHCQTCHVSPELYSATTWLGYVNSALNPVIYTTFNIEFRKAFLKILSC
Chain of Vasopressin V2 receptor (P30518 whole entry): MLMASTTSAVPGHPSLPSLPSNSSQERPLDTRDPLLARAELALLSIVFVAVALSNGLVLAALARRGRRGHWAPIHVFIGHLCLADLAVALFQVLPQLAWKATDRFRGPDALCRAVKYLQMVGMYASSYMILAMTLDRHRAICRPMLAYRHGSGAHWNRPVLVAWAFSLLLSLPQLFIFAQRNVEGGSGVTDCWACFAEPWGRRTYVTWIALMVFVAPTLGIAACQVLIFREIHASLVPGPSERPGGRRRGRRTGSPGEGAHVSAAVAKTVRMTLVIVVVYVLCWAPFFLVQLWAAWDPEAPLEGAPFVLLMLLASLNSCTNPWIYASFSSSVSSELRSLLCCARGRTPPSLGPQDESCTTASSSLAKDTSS
Chain of Beta-1 adrenergic receptor (P08588 whole entry): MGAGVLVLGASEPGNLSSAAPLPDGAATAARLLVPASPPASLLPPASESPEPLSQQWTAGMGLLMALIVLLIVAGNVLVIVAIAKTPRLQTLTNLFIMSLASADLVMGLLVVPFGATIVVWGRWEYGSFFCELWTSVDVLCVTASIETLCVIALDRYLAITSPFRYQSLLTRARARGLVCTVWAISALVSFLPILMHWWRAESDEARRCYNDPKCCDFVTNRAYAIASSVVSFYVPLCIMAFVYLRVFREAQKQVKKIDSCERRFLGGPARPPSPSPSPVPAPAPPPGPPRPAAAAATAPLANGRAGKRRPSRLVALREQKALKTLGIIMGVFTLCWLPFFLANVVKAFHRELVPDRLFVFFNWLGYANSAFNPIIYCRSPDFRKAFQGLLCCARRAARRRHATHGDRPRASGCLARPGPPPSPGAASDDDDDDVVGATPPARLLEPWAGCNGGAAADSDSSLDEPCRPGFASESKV
Chain of Histamine H2 receptor (P25021 whole entry): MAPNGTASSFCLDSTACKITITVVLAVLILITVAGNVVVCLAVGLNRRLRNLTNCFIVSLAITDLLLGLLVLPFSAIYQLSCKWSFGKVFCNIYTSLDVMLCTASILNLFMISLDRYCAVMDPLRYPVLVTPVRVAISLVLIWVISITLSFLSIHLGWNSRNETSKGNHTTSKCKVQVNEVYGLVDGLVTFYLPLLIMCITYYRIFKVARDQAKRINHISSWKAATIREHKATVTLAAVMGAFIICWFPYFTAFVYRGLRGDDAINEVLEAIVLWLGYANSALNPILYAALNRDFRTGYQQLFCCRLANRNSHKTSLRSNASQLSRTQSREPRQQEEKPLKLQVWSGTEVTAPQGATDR
Chain of Gamma-aminobutyric acid receptor subunit alpha-1 (P62813 whole entry): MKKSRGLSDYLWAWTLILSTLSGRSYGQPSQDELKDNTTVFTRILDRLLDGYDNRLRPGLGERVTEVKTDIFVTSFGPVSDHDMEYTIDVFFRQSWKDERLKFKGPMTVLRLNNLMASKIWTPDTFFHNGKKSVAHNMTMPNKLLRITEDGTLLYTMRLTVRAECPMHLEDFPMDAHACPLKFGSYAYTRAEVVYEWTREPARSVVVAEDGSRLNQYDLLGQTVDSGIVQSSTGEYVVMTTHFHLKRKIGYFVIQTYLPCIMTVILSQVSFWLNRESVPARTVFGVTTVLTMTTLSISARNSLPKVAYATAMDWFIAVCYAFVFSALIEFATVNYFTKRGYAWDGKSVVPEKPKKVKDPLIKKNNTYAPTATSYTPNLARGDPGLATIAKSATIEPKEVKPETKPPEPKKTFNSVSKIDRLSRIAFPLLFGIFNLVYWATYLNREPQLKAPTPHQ

| Compound | AC50 [1] [µM] | AC50 [2] [µM] | AC50 [3] [µM] | AC50 [4] [µM] | AC50 [5] [µM] | AC50 [6] [µM] | AC50 [7] [µM] | AC50 [8] [µM] | AC50 [9] [µM] | AC50 [10] [µM] | AC50 [11] [µM] | AC50 [12] [µM] | AC50 [13] [µM] | AC50 [14] [µM] |
| --- | --- | --- | --- | --- | --- | --- | --- | --- | --- | --- | --- | --- | --- | --- |
| Oc1cc(O)c(Cl)cn1 | > 30 | > 30 | > 30 | > 30 | > 30 | > 30 | > 30 | > 30 | > 30 | > 30 | > 30 | > 30 | > 30 | > 30 |
| CC(C)N(CCCCOCC(=O)O)c1cnc(-c2ccccc2)c(-c2ccccc2)n1 | > 30 | > 30 | > 30 | > 30 | > 30 | > 30 | > 30 | > 30 | 17 | > 30 | > 30 | > 30 | > 30 | 10.1 |
| CC(=O)c1ccc(S(=O)(=O)NC(=O)NC2CCCCC2)cc1 [ACETOHEXAMIDE] | > 10 | > 10 | > 10 | > 10 | > 10 | > 10 | > 10 | > 30 | > 10 | > 30 | > 10 | > 10 | > 30 | > 10 |
| COc1cc(C)c(/C=C/C(C)=C/C=C/C(C)=C/C(=O)O)c(C)c1C [ACITRETIN] | > 10 | > 10 | > 10 | > 10 | > 10 | > 10 | > 10 | > 30 | > 10 | > 10 | > 10 | > 10 | > 30 | > 10 |
| Cc1cc(=O)n(-c2ccccc2)n1C [ANTIPYRINE] | > 30 | > 10 | > 30 | > 10 | > 10 | > 10 | > 10 | > 30 | > 30 | > 10 | > 30 | > 10 | > 10 | > 30 |
| Clc1ccc(CCC(Cn2ccnc2)Sc2c(Cl)cccc2Cl)cc1 (configuration not stated) [BUTOCONAZOLE] | > 30 | > 30 | > 30 | > 30 | > 30 | > 30 | > 30 | > 30 | 30 | > 30 | > 30 | > 30 | > 30 | 16 |
| CO/N=C(\C(=O)N[C@@H]1C(=O)N2C(C(=O)O)=C(CSc3nc(=O)c(=O)[nH]n3C)CS[C@H]12)c1csc(N)n1 [CEFTRIAXONE] | > 30 | > 30 | > 30 | > 30 | > 30 | > 30 | > 30 | > 30 | > 30 | > 30 | > 30 | > 30 | > 30 | > 30 |
| CC(CN(C)C)C(C)(O)Cc1ccc(Cl)cc1 (configuration not stated) [CLOBUTINOL] | > 30 | > 10 | > 30 | > 10 | > 10 | > 10 | > 30 | > 30 | > 30 | > 10 | > 30 | > 10 | > 30 | > 30 |
| CCOC(=O)C(C)(C)Oc1ccc(Cl)cc1 [CLOFIBRATE] | > 30 | > 10 | > 30 | > 10 | > 10 | > 10 | > 10 | > 30 | > 30 | > 10 | > 30 | > 10 | > 30 | > 30 |
| Oc1ccc(CCNCCCCCCNCCc2ccccc2)cc1O [DOPEXAMINE] | > 30 | > 30 | > 30 | > 30 | > 30 | > 30 | > 30 | > 30 | > 30 | > 30 | > 30 | > 30 | 0.16 | 12 |
| CCN1CC(CCN2CCOCC2)C(c2ccccc2)(c2ccccc2)C1=O (configuration not stated) [DOXAPRAM] | > 30 | > 30 | > 30 | > 30 | > 30 | > 30 | > 30 | > 30 | > 30 | > 30 | > 30 | > 30 | > 30 | > 30 |
| CCCCOc1ccc(C(=O)CCN2CCCCC2)cc1 [DYCLONINE] | > 30 | > 10 | > 30 | > 10 | > 10 | > 10 | > 10 | > 30 | > 30 | > 10 | > 30 | > 10 | > 10 | > 30 |
| CCc1cc2c(s1)-n1c(C)nnc1CN=C2c1ccccc1Cl [ETIZOLAM] | > 30 | > 30 | > 30 | > 30 | > 30 | > 30 | > 30 | > 30 | > 30 | > 30 | > 30 | 0.0091 | > 30 | > 30 |
